Consider 18 compounds from patent publication US20060276464A1, “Diarylsulfone sulfonamides and use thereof” (Wyeth, priority 2005, published 2006).

The target in assay [1] is T1, SFRP-1 (Homo sapiens, UniProt Q8N474).
T1 sequence (Q8N474 32-314): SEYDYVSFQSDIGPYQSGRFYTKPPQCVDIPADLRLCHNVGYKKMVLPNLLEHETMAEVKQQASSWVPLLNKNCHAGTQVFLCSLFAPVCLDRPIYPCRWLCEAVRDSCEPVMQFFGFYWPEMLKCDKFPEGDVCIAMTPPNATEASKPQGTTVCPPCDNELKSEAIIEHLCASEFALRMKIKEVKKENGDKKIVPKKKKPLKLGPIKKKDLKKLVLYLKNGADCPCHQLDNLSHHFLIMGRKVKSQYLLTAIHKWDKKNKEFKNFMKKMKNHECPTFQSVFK
Put plainly: Fluorescence polarization binding assay (competitive displacement of a probe compound from SFRP-1).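 Also: test compound competes with a fluorescent probe held by SFRP-1, seen as a drop in probe anisotropy after incubation in darkness, with anisotropy as function of rising compound dose.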 The settings on record: fluorescence anisotropy, 45 nM SFRP-1, 20 nM probe.

Assay [2] has as its target T1, SFRP-1. In words: Cell-based assay for in vitro measurement of SFRP-1/SARP2 antagonist activity (U2OS cells co-transfected with 16x TCF-tk-Luciferase reporter, Wnt and hSFRP-1).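 As to all read-outs here: U2OS cells co-transfected with a TCF-tk luciferase reporter, a Wnt vector, hSFRP-1 or empty vector and CMV-βgal, luciferase luminescence read in cell lysates alongside βgal activity.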 The settings on record: for fold induction at 10 µM: U2OS, read-out: Fold Induction with SFRP-1, U2OS cells, single dose 10 μM, luciferase reporter, fold induction over SFRP-1 control. (A reporter such as luciferase makes a cellular process visible.)

The term IC50 denotes the concentration needed to halve the response being measured. High values mean weaker potency, low ones greater potency. A word on the EC50: it is the concentration needed to bring the measured effect to its halfway point. A higher EC50 goes with a need for much substance. In the case of `CC(C)c1ccc(S(=O)(=O)c2ccc(F)cc2)cc1S(=O)(=O)NC1CCN(C(=S)Nc2cccnc2)CC1` [Example 701, 4-[({5-[(4-fluorophenyl)sulfonyl]-2-isopropylphenyl}sulfonyl)amino]-N-pyridin-3-ylpiperidine-1-carbothioamide], the IC50 at SFRP-1 [1] was found to be 0.7 µM. Moreover, on SFRP-1 [2], the EC50 came to 0.698 µM and the fold induction at 10 µM stood at 3.
In the same order, the values of `COc1ccccc1C(=O)N1CCC(NS(=O)(=O)c2cc(S(=O)(=O)c3ccccc3)ccc2C(F)(F)F)CC1` [Example 703, N-[1-(2-methoxybenzoyl)piperidin-4-yl]-5-(phenylsulfonyl)-2-(trifluoromethyl)benzenesulfonamide] are 0.16 µM, 1.2 µM and 4.8.
On the same counts, the results for `O=C(c1ccc(F)c(F)c1)N1CCC(NS(=O)(=O)c2cc(S(=O)(=O)c3ccccc3)ccc2C(F)(F)F)CC1` [Example 705, N-[1-(3,4-difluorobenzoyl)piperidin-4-yl]-5-(phenylsulfonyl)-2-(trifluoromethyl)benzenesulfonamide] are 0.2 µM, 0.787 µM and 3.5.
On the same counts, the results for `O=C(c1cc(F)cc(F)c1)N1CCC(NS(=O)(=O)c2cc(S(=O)(=O)c3ccccc3)ccc2C(F)(F)F)CC1` [Example 706, N-[1-(3,5-difluorobenzoyl)piperidin-4-yl]-5-(phenylsulfonyl)-2-(trifluoromethyl)benzenesulfonamide] are 0.18 µM, 0.503 µM and 3.7.
Turning to `COc1cccc(OC)c1C(=O)N1CCC(NS(=O)(=O)c2cc(S(=O)(=O)c3ccccc3)ccc2C(F)(F)F)CC1` [Example 707, N-[1-(2,6-dimethoxybenzoyl)piperidin-4-yl]-5-(phenylsulfonyl)-2-(trifluoromethyl)benzenesulfonamide], the IC50 on SFRP-1 [1] is 0.2 µM. In addition, at SFRP-1 [2], the EC50 is 0.187 µM and the fold induction at 10 µM is 4.2.
On the same counts, the results for `COc1ccc(C(=O)N2CCC(NS(=O)(=O)c3cc(S(=O)(=O)c4ccccc4)ccc3C(F)(F)F)CC2)c(OC)c1` [Example 708, N-[1-(2,4-dimethoxybenzoyl)piperidin-4-yl]-5-(phenylsulfonyl)-2-(trifluoromethyl)benzenesulfonamide] are 0.3 µM, 1.17 µM and 3.7.
In the same order, the values of `O=C(c1ccc(OC(F)(F)F)cc1)N1CCC(NS(=O)(=O)c2cc(S(=O)(=O)c3ccccc3)ccc2C(F)(F)F)CC1` [Example 709, 5-(phenylsulfonyl)-N-{1-[4-(trifluoromethoxy)benzoyl]piperidin-4-yl}-2-(trifluoromethyl)benzenesulfonamide] are 0.4 µM, 2.35 µM and 4.5.
As to `O=C(c1ccc(C(F)(F)F)cc1F)N1CCC(NS(=O)(=O)c2cc(S(=O)(=O)c3ccccc3)ccc2C(F)(F)F)CC1` [Example 710, N-{1-[2-fluoro-4-(trifluoromethyl)benzoyl]piperidin-4-yl}-5-(phenylsulfonyl)-2-(trifluoromethyl)benzenesulfonamide], on SFRP-1 [1], the IC50 came to 0.7 µM. At SFRP-1 [2], the fold induction at 10 µM was 3.5.
With `O=C(c1ccc(C(F)(F)F)c(F)c1)N1CCC(NS(=O)(=O)c2cc(S(=O)(=O)c3ccccc3)ccc2C(F)(F)F)CC1` [Example 711, N-{1-[3-fluoro-4-(trifluoromethyl)benzoyl]piperidin-4-yl}-5-(phenylsulfonyl)-2-(trifluoromethyl)benzenesulfonamide], the IC50 at SFRP-1 [1] amounted to 0.3 µM. Also, on SFRP-1 [2], the EC50 amounted to 9.4 µM and the fold induction at 10 µM is 3.3.
At SFRP-1 [1], `O=C(c1ccc(Cl)c(Cl)c1)N1CCC(NS(=O)(=O)c2cc(S(=O)(=O)c3ccccc3)ccc2C(F)(F)F)CC1` [Example 712, N-[1-(3,4-dichlorobenzoyl)piperidin-4-yl]-5-(phenylsulfonyl)-2-(trifluoromethyl)benzenesulfonamide] had a half-inhibitory concentration (IC50) of 0.5 µM. The fold induction at 10 µM at SFRP-1 [2] is 2.9.
At SFRP-1 [1], `COc1cc(C(=O)N2CCC(NS(=O)(=O)c3cc(S(=O)(=O)c4ccccc4)ccc3C(F)(F)F)CC2)cc(Cl)n1` [Example 715, N-[1-(2-chloro-6-methoxyisonicotinoyl)piperidin-4-yl]-5-(phenylsulfonyl)-2-(trifluoromethyl)benzenesulfonamide] had an IC50 of 0.4 µM. Further, at SFRP-1 [2], the response was half-maximal at 1.29 µM (EC50) and the fold induction at 10 µM amounted to 4.9.
On the same counts, the results for `O=C(c1ccc(F)cc1Cl)N1CCC(NS(=O)(=O)c2cc(S(=O)(=O)c3ccccc3)ccc2C(F)(F)F)CC1` [Example 716, N-[1-(2-chloro-4-fluorobenzoyl)piperidin-4-yl]-5-(phenylsulfonyl)-2-(trifluoromethyl)benzenesulfonamide] are 0.3 µM, 1.76 µM and 4.2.
For `O=C(c1c(F)cc(F)cc1F)N1CCC(NS(=O)(=O)c2cc(S(=O)(=O)c3ccccc3)ccc2C(F)(F)F)CC1` [Example 717, 5-(phenylsulfonyl)-N-[1-(2,4,6-trifluorobenzoyl)piperidin-4-yl]-2-(trifluoromethyl)benzenesulfonamide], the IC50 at SFRP-1 [1] was 0.17 µM. At SFRP-1 [2], the EC50 stood at 1.29 µM and the fold induction at 10 µM came to 5.3.
In the case of `CC(C)(C)c1ccc(C(=O)N2CCC(NS(=O)(=O)c3cc(S(=O)(=O)c4ccccc4)ccc3C(F)(F)F)CC2)cc1` [Example 718, N-[1-(4-tert-butylbenzoyl)piperidin-4-yl]-5-(phenylsulfonyl)-2-(trifluoromethyl)benzenesulfonamide], on SFRP-1 [1], the IC50 was 0.4 µM. Moreover, on SFRP-1 [2], a half-maximal effect (EC50) was put at 0.214 µM and the fold induction at 10 µM is 6.7.
In the same order, the values of `CC(=O)Nc1ccc(C(=O)N2CCC(NS(=O)(=O)c3cc(S(=O)(=O)c4ccccc4)ccc3C(F)(F)F)CC2)cc1` [Example 719, N-(4-{[4-({[5-(phenylsulfonyl)-2-(trifluoromethyl)phenyl]sulfonyl}amino)piperidin-1-yl]carbonyl}phenyl)acetamide] are 0.2 µM, 0.441 µM and 2.1.
At SFRP-1 [1], `O=S(=O)(N[C@H](CO)Cc1ccccc1)c1cc(S(=O)(=O)c2ccccc2)ccc1C(F)(F)F` [Example 720, N-[(1S)-1-benzyl-2-hydroxyethyl]-5-(phenylsulfonyl)-2-(trifluoromethyl)benzenesulfonamide] came in with an IC50 of 6 µM. At SFRP-1 [2], the fold induction at 10 µM was determined as 2.
The compound `O=S(=O)(N[C@H](CO)Cc1c[nH]c2ccccc12)c1cc(S(=O)(=O)c2ccccc2)ccc1C(F)(F)F` [Example 721, N-[(1S)-2-hydroxy-1-(1H-indol-3-ylmethyl)ethyl]-5-(phenylsulfonyl)-2-(trifluoromethyl)benzenesulfonamide] displayed an IC50 at SFRP-1 [1] of 2 µM. The fold induction at 10 µM at SFRP-1 [2] is 2.7.
At SFRP-1 [1], `O=S(=O)(NCCc1ccc[n+]([O-])c1)c1cc(S(=O)(=O)c2ccccc2)ccc1C(F)(F)F` [Example 723, N-[2-(1-oxidopyridin-3-yl)ethyl]-5-(phenylsulfonyl)-2-(trifluoromethyl)benzenesulfonamide] gave an IC50 of 0.2 µM. Also, at SFRP-1 [2], the EC50 is 0.79 µM and the fold induction at 10 µM was determined as 4.5.
